Earlier results in article PMC8812516 (Proceedings of the National Academy of Sciences of the …, 2022).

Test system: Shaker-IR channel

charybdotoxin
effect of inactivation on affinity of toxins: inactivation does not alter the affinity of toxins for that channel
